According to patent US20240288345A1, “FLUORESCENT STAINING METHOD” (OSAKA UNIVERSITY, priority 2022, published 2024):

Experiments:
[1] = tested on: human colonic mucosal tissue; assay: Clearing and whole-mount 3D fluorescent staining of human colonic mucosal tissue (Test Example B)
Protocol: CUBIC-L and CUBIC-R+reagents (T3740 and T3741, Tokyo Chemical Industry Co., Ltd.) were used in tissue clearing. Atissue removal procedure is simply described below.
A formaldehyde-fixed tissue specimen was washed with PBS, and was subsequently immersed in a 50% (v/v) CUBIC-L reagent (mixture containing water and the CUBIC-L reagent at 1:1) overnight. Further, the specimen was immersed in the CUBIC-L reagent at 37° C. for 5 days or 6 days while being gently shaken. Next, each of those specimens was washed with PBS, was immersed in 30% (w/v) of sucrose in the PBS, and was frozen in O.C.T. COMPOUND at −80° C. overnight. […] After having been washed with PBS, the specimen was stained by being gently shaken at room temperature for 2 days or 3 days together with FAM hydrazide, 5-isomer (50 μM), Compound 1 (50 μM), Alexa Fluor 488 hydrazide (50 µM), BDP FL hydrazide ([…]), or fluorescein (50 µM) in PBS containing 0.5% (v/v) of Triton X-100 (12967, Nacalai Tesque, Inc.). When nuclear counterstaining was performed, propidium iodide (PI) (10 μg/mb, P21493, Life Technologies Corporation) or RedDot-2 (1:100, 40061-T, Biotium, Inc.) was also added to the staining solution. After the staining step, the specimen was washed with PBS, and was immersed in a 50% (v/v) CUBIC-R+reagent (mixture containing water and the CUBIC-R+reagent at 1:1) overnight. Further, the specimen was immersed in the CUBIC-R+reagent for 1 day or 2 days while being gently shaken. A cleared tissue specimen thus obtained was subjected to 3D imaging with a confocal fluorescence microscope or a light-sheet fluorescence microscope. A wavelength of 488 nm was applied as the excitation wavelength of each of FAM hydrazide, Compound 1, Alexa Fluor 488 hydrazide, BDP FL hydrazide, and fluorescein, and the fluorescence detection wavelength range of each of these materials was from 490 nm to 562 nm.
A 3D image was obtained by using a confocal microscope (Zeiss LSM880 Confocal/Multiphoton, Carl Zeiss AG) or a light-sheet fluorescence microscope (Zeiss Lightsheet 7, Carl Zeiss AG), All pieces of raw image data were reconstructed and analyzed with Imaris software (version 9.2.1, Bitplane Inc.).
A human colonic mucosal tissue after its formalin fixation, which had been excised into a square about 4 mm on a side, was subjected to clearing treatment and to whole-mount 3D tissue staining through use of FAM hydrazide, Alexa Fluor 488 hydrazide, BDP FL hydrazide, or fluorescein as a stain.

[2] = tested on: fungal hyphae in a pulmonary aspergillosis tissue; assay: 3D imaging of fungal hyphae (Test Example H); conditions: with RedDot 2 counterstain, confocal microscope
Protocol: (§1) A formaldehyde-fixed tissue specimen was washed with PBS, and was subsequently immersed in a 50% (v/v) CUBIC-L reagent (mixture containing water and the CUBIC-L reagent at 1:1) overnight. Further, the specimen was immersed in the CUBIC-L reagent at 37° C. for 5 days or 6 days while being gently shaken. Next, each of those specimens was washed with PBS, was immersed in 30% (w/v) of sucrose in the PBS, and was frozen in O.C.T. COMPOUND at −80° C. overnight. Next, the frozen specimen was thawed, was washed with PBS, and was immersed in a 0.5% solution of periodic acid (HIO;) (86171, MUTO PURE CHEMICALS CO., LTD.) at room temperature for 30 minutes. […] A cleared tissue specimen thus obtained was subjected to 3D imaging with a confocal fluorescence microscope or a light-sheet fluorescence microscope. A wavelength of 488 nm was applied as the excitation wavelength of each of FAM hydrazide, Compound 1, Alexa Fluor 488 hydrazide, BDP FL hydrazide, and fluorescein, and the fluorescence detection wavelength range of each of these materials was from 490 nm to 562 nm. […]

[3] = tested on: goblet cell mucus of human colorectal mucosal tissue; assay: Fluorescent staining of frozen sliced specimen of human colonic mucosa (Test Example A)
Protocol: A tissue to be stained was washed with phosphate buffered saline (PBS), was immersed in 30% (w/v) of sucrose in the PBS, and was frozen in O.C.T. COMPOUND (45833, Sakura Finetek) at −80° ° C. overnight. The frozen tissue was cut into a thickness of 10 μm with a cryostat (CM3050 S, Leica Biosystems). The resultant frozen section was washed with PBS three times, and was subjected to pretreatment with a 0.5% solution of periodic acid (HIOA) (86171, MUTO PURE CHEMICALS CO., LTD.) at room temperature for 30 minutes. The section was washed with PBS three times, and was incubated in FAM hydrazide, 5-isomer((50 µM, 24170, BroadPharm, in this description, sometimes referred to as “FAM hydrazide”), Alexa Fluor 488 hydrazide (50 μM, A10436, ThermoFisher Scientific, Inc.), BDP FL hydrazide (50 μM, 11470, Lumiprobe Corporation), or fluorescein (50 µM, FUJIFILM Wako Pure Chemical Corporation) diluted with PBS at room temperature overnight. After that, the section was washed with PBS and an image thereof was obtained with a confocal microscope.
A section of a human colorectal mucosal tissue sampled from the non-tumor region of a surgical specimen of colorectal cancer was subjected to fluorescent staining through use of FAM hydrazide, Alexa Fluor 488 hydrazide, BDP FL hydrazide, or fluorescein serving as a fluorescent skeleton as a stain.

[4] = tested on: neutrophil in colonic tissue analyte; assay: Whole-mount 3D staining of ulcerative colitis colonic tissue analyte (Test Example C); design: species or system human; conditions: cleared
Protocol: as §1

[5] = tested on: colonic tissue analyte, crypt structure and neutrophils; assay: 3D imaging of ulcerative colitis histopathological analyte (Test Example D); design: species or system human; conditions: cleared, whole-mount 3D staining
Protocol: as §1

human colonic polyp = assay: 3D imaging of human colonic polyp with light-sheet microscope (Test Example G); conditions: with propidium iodide counterstain
Protocol: as §1

NNC(=O)c1ccc2c(c1)C(=O)OC21c2ccc(O)cc2Oc2cc(O)ccc21 [FAM hydrazide, FAM hydrazide, 5-isomer]
3D imaging signal of cleared tissue ([1]; CUBIC clearing, periodic acid, 50 μM, 2-3 days, excitation 488 nm): clear stereoscopic image | Staining of goblet cell and basement membrane in crypt of colonic mucosa ([1]; cleared tissue, 3D staining): clearly stained | Staining of neutrophil in 3D tissue staining ([1]; cleared tissue, confirmed with anti-MPO antibody): clearly stained | 3D staining signal without oxidation treatment with HIO4 ([1]; no HIO4 oxidation, CUBIC reagent): no positive signal was observed | Staining property for a sample having a thickness after clearing treatment ([1]; summary of Examples and Test Examples): significantly excellent | Visualization of structures of fungal hyphae [2]: clearly visualized | Fluorescent staining signal in goblet cell mucus, sliced section ([3]; 10 μm frozen section, 0.5% periodic acid pretreatment, 50 μM overnight): clear positive image | Fluorescent staining signal without oxidation treatment with HIO4, sliced section ([3]; no HIO4 oxidation): not obtained | Stained image of neutrophil in 3D imaging [4]: clear stained image | Three-dimensional observation of pathological crypt structure of ulcerative colitis [5]: enabled the three-dimensional observation | Observation of surface layer structure of human colonic polyp (human colonic polyp): able to be observed
